Experiments:
[1] = test system: Botryotinia fuckeliana (Botrytis cinerea); assay: Botryotinia fuckeliana (Botrytis cinerea) / liquid culture (gray mould); type: cell-based; details: 72 h, 20 ppm, liquid culture, inhibition of growth photometrically 3-4 days after application, compared to untreated control, read-out: control of Botryotinia fuckeliana
[2] = test system: Glomerella lagenarium (Colletotrichum lagenarium); assay: Glomerella lagenarium (Colletotrichum lagenarium) / liquid culture (anthracnose); type: cell-based; details: Colletotrichum orbiculare; 20 ppm; liquid culture, inhibition of growth photometrically 3-4 days after application; compared to untreated control; read-out: control of Glomerella lagenarium
Fusarium culmorum [3] = assay: microbe, parasite or virus in culture; type: cell-based; details: read-out: control of Fusarium culmorum
Fusarium culmorum [4] = assay: whole plant or invertebrate; type: in vivo, Fusarium culmorum on wheat spikelets cv. Monsun; details: in Triticum aestivum, read-out: control of Fusarium culmorum
[5] = test system: Gibberella zeae (Fusarium graminearum); assay: whole plant or invertebrate; type: in vivo; details: in Triticum aestivum, 144 h, read-out: control of Gibberella zeae
[6] = test system: Monographella nivalis (Microdochium nivale); assay: Monographella nivalis (Microdochium nivale) / liquid culture (foot rot cereals); type: cell-based; details: 96 h, inhibition of growth photometrically 4-5 days after application, compared to untreated control
[7] = test system: Magnaporthe grisea (Pyricularia oryzae); assay: microbe, parasite or virus in culture; type: cell-based; details: 72 h, read-out: control of Magnaporthe grisea
[8] = test system: Magnaporthe grisea (Pyricularia oryzae); assay: whole plant or invertebrate; type: in vivo; details: foliar, read-out: control of Magnaporthe grisea
Sclerotinia sclerotiorum = Sclerotinia sclerotiorum / liquid culture (cottony rot); details: 72 h, read-out: control of Sclerotinia sclerotiorum
Procedure: Sclerotinia sclerotiorum/Liquid Culture (Cottony Rot)
Mycelia fragments of a newly grown liquid culture of the fungus are directly mixed into nutrient broth (Vogels broth). After placing a (DMSO) solution of test compound into a microtiter plate (96-well format) the nutrient broth containing the fungal material is added. The test plates are incubated at 24° C. and the inhibition of growth is determined photometrically 3-4 days after application.

SMILES | inhibition of growth at 20 ppm [1] [%] | inhibition of growth at 20 ppm [2] [%] | inhibition of growth at 20 ppm (Fusarium culmorum [3]) [%] | pest or weed control at 200 ppm (Fusarium culmorum [4]) [%] | pest or weed control at 200 ppm [5] [%] | inhibition of growth at 20 ppm [6] [%] | inhibition of growth at 20 ppm [7] [%] | melting point [°C] | pest or weed control at 200 ppm [8] [%] | inhibition of growth at 20 ppm (Sclerotinia sclerotiorum) [%]
C=C(C)CC(C)(CC(=C)C)NC(=O)c1cnc2c(F)cccc2c1 [E-2, N-[1,3-dimethyl-1-(2-methylallyl)but-3-enyl]-8-fluoro-quinoline-3-carboxamide] | ≥ 80 | ≥ 80 | ≥ 80 | ≥ 80 | ≥ 80 | ≥ 80 | ≥ 80 | 116 to 118 | – | –
C/C=C(\C)CC(C)(CC(C)C)NC(=O)c1cnc2c(F)cccc2c1 (centres unmarked) [E-5] | ≥ 80 | ≥ 80 | ≥ 80 | ≥ 80 | ≥ 80 | ≥ 80 | ≥ 80 | – | – | –
CC(C)=C(F)CC(C)(CC(C)C)NC(=O)c1cnc2c(F)cccc2c1 (centres unmarked) [E-6] | ≥ 80 | ≥ 80 | ≥ 80 | ≥ 80 | ≥ 80 | ≥ 80 | ≥ 80 | 119 to 121 | – | –
CC(C)CC(CC(C)C)NC(=O)c1cnc2c(F)cccc2c1 [E-9] | ≥ 80 | ≥ 80 | ≥ 80 | ≥ 80 | ≥ 80 | ≥ 80 | ≥ 80 | 170 to 172 | – | –
CC(C)(C)C(CCc1ccccc1)NC(=O)c1cnc2c(F)cccc2c1 (centres unmarked) [E-14] | ≥ 80 | ≥ 80 | ≥ 80 | ≥ 80 | ≥ 80 | ≥ 80 | ≥ 80 | 55 to 65 | – | –
CC(C)=C(F)CC(CC(C)C)NC(=O)c1cnc2c(F)cccc2c1 (centres unmarked) [E-18] | ≥ 80 | ≥ 80 | ≥ 80 | ≥ 80 | ≥ 80 | ≥ 80 | ≥ 80 | 75 to 76 | – | –
CC(C)(Cc1ccccc1)C(C)(C)NC(=O)c1cnc2c(F)cccc2c1 [E-21] | ≥ 80 | – | ≥ 80 | ≥ 80 | ≥ 80 | ≥ 80 | ≥ 80 | 131 to 132 | – | –
CC(C)(CCCc1ccccc1)NC(=O)c1cnc2c(F)cccc2c1 [E-23] | ≥ 80 | ≥ 80 | ≥ 80 | ≥ 80 | ≥ 80 | ≥ 80 | – | – | – | –
CC(C)(CCc1cccc(C(F)(F)F)c1)NC(=O)c1cnc2c(F)cccc2c1 [E-27] | ≥ 80 | ≥ 80 | ≥ 80 | – | – | ≥ 80 | – | – | ≥ 80 | –
CCCC(C)CC(C)NC(=O)c1cnc2c(C)cccc2c1 (centres unmarked) [E-42] | ≥ 80 | ≥ 80 | ≥ 80 | – | – | ≥ 80 | – | – | ≥ 80 | –
CCC(CC)CC(C)(CC(F)(F)F)NC(=O)c1cnc2c(F)cccc2c1 (centres unmarked) [E-45] | ≥ 80 | ≥ 80 | ≥ 80 | – | ≥ 80 | ≥ 80 | ≥ 80 | – | – | –
CCCC(C)CC(C)(CC(F)(F)F)NC(=O)c1cnc2ccccc2c1 (centres unmarked) [E-46] | ≥ 80 | ≥ 80 | ≥ 80 | ≥ 80 | ≥ 80 | – | – | – | – | –
CCCC(C)CC(C)(CC(F)(F)F)NC(=O)c1cnc2c(C)cccc2c1 (centres unmarked) [E-47] | ≥ 80 | ≥ 80 | ≥ 80 | ≥ 80 | – | ≥ 80 | ≥ 80 | – | ≥ 80 | –
C=C(C)CC(C)(CC1CCCCC1)NC(=O)c1cnc2c(F)c(F)ccc2c1 (centres unmarked) [E-48] | ≥ 80 | ≥ 80 | ≥ 80 | ≥ 80 | – | ≥ 80 | ≥ 80 | 115 to 117 | – | ≥ 80
CC(CC1CC=CCC1)(CC(F)(F)F)NC(=O)c1cnc2c(F)cccc2c1 (centres unmarked) [E-54] | ≥ 80 | ≥ 80 | ≥ 80 | ≥ 80 | – | ≥ 80 | ≥ 80 | 115 to 118 | – | ≥ 80
C=C(C)CC(C)(CC(=C)C)NC(=O)c1cnc2c(F)c(F)ccc2c1 [E-56] | ≥ 80 | ≥ 80 | ≥ 80 | – | – | ≥ 80 | ≥ 80 | 117 to 120 | ≥ 80 | ≥ 80
CC(CC1CCCC1)(CC(F)(F)F)NC(=O)c1cnc2c(F)c(F)ccc2c1 (centres unmarked) [E-57] | ≥ 80 | ≥ 80 | ≥ 80 | – | – | ≥ 80 | ≥ 80 | 115 to 116 | ≥ 80 | ≥ 80
CC(CC1CCCCC1)(CC(F)(F)F)NC(=O)c1cnc2c(F)c(F)ccc2c1 (centres unmarked) [E-58] | ≥ 80 | ≥ 80 | ≥ 80 | – | – | ≥ 80 | ≥ 80 | 99 to 102 | ≥ 80 | ≥ 80
Cc1cccc2cc(C(=O)NC(C)(CC3CCCCC3)CC(F)(F)F)cnc12 (centres unmarked) [E-61] | ≥ 80 | ≥ 80 | ≥ 80 | – | – | ≥ 80 | ≥ 80 | 107 to 110 | ≥ 80 | ≥ 80
CC(CC1CCCCC1)(CC(F)(F)F)NC(=O)c1cnc2c(F)cccc2c1 (centres unmarked) [E-62] | ≥ 80 | ≥ 80 | ≥ 80 | – | – | ≥ 80 | ≥ 80 | 55 to 76 | ≥ 80 | ≥ 80
CC(CC1CCCC1)(CC(F)(F)F)NC(=O)c1cnc2ccccc2c1 (centres unmarked) [E-63] | ≥ 80 | ≥ 80 | ≥ 80 | ≥ 80 | – | ≥ 80 | ≥ 80 | 94 to 103 | – | ≥ 80
Cc1cccc2cc(C(=O)NC(C)(CC3CCCC3)CC(F)(F)F)cnc12 (centres unmarked) [E-64] | ≥ 80 | ≥ 80 | ≥ 80 | ≥ 80 | – | ≥ 80 | ≥ 80 | 108 to 116 | – | ≥ 80
CC1(C[C@](C)(CC(F)(F)F)NC(=O)c2cnc3c(F)cccc3c2)CC1 [F-1, 8-fluoro-N-[(1R)-3,3,3-trifluoro-1-methyl-1-[(1-methylcyclo-propyl)meth-yl]propyl] quinoline-3-carboxamide] | ≥ 80 | ≥ 80 | ≥ 80 | ≥ 80 | ≥ 80 | ≥ 80 | ≥ 80 | – | – | –
C[C@](CC1CCCCC1)(CC(F)(F)F)NC(=O)c1cnc2c(F)cccc2c1 [F-3, N-[(1S)-1-(cyclohexylmeth-yl)-3,3,3-trifluoro-1-methyl-propyl]-8-fluoro-quinoline-3-carboxamide] | ≥ 80 | ≥ 80 | ≥ 80 | – | – | ≥ 80 | ≥ 80 | 132 to 133 | ≥ 80 | ≥ 80
C[C@](CC1CCCC1)(CC(F)(F)F)NC(=O)c1cnc2c(F)cccc2c1 [F-5, N-[(1S)-1-(cyclopentylmeth-yl)-3,3,3-trifluoro-1-methyl-propyl]-8-fluoro-quinoline-3-carboxamide] | ≥ 80 | ≥ 80 | ≥ 80 | ≥ 80 | – | – | ≥ 80 | 102 to 105 | – | ≥ 80

— patent publication US11185074B2, “Microbiocidal quinoline (thio)carboxamide derivatives” (SYNGENTA PARTICIPATIONS AG, priority 2017, dated 2021)
